Measured values as given in patent US9989543B2, “Composition, device, and method for detecting olmesartan and improving compliance in treating hypertension” (Autotelic LLC, priority 2016, dated 2018).
Read-outs that look alike come from different tables or passages of the source.

Assays:
[1] = Olmesartan blood concentration/AUC after 7-day versus single-day dosing; assay type: in vivo, Korean healthy males
[2] = as above; assay type: in vivo, Korean healthy males; conditions: for % Reduction: Compliance-7X vs Non-Compliance-1X
Description: Drug exposure as AUC was studied among Korean healthy males aged between 20 and 50 years in two clinical studies: (1) taking drug regularly for 7 days (subjects were administered either 1 tablet of 40 mg olmesartan medoxomil, 1 tablet of 20 mg rosuvastatin calcium, or 1 tablet each of both agents orally every 24 hours for 7 days) and (2) taking drug only one day (58 subjects divided into 2 cohorts and treated over 2 periods; one tablet of ST-101 (FDC olmesartan and rosuvastatin) tablet of 40 mg olmesartan medoxomil/20 mg rosuvastatin calcium was administered once orally as the test drug, or 1 tablet each of 40 mg olmesartan medoxomil and 20 mg rosuvastatin calcium was co-administered once orally as the comparator). Pharmacokinetic analyses were performed. For PK analyses, blood samples were collected at 0 (pre-dose), 0.5, 2, 2.5, 3, 4, 5, 6, 7, 8, 10, 12, 16, 24, and 48 hr after dosing of olmesartan either as FDC or as single agent. The results are graphically illustrated in FIG. 1. FIG. 1 compares olmesartan AUC (area-under-the-curve) for subjects taking olmesartan regularly for 7 days (Multiple Dosing ×7, solid circles) and for subjects taking olmesartan only 1 day (Single Dosing ×1, open circles): mean+/−95% confidence interval (CI) for subjects taking olmesartan regularly for 7 days. […] The differences between compliance and non-compliance across a 24 hr period were determined (see Table 1). The % reduction in blood concentration can be used to determine if the patient is missing his/her medication. […] There is about 40 ng/mL remaining at 24 hr, which accumulated to about 60 ng/mL following consistently medication for 7 days. The comparison between full compliance for 7 days versus noncompliance is tabulated below.

[3] = highest dose, olmesartan at 40 mg/day; cited from earlier work

## CCCc1nc(C(C)(C)O)c(C(=O)O)n1Cc1ccc(-c2ccccc2-c2nnn[nH]2)cc1 [olmesartan]
[1]; Time 1.5 hrs, Compliance-7X vs Non-Compliance-1X
  % Reduction: 14.15%
[1]; male, human, blood, oral, 40 mg, Time 1 hrs, dosing every 24 hours for 7 days, read-out: Blood concentration (ng/mL)/Compliance-7X
  concentration at 1 h: 858 ng/mL
[2]; Time 0 hrs
  % Reduction: Infinity
[2]; Time 1 hrs
  % Reduction: 26.84%
[2]; Time 2 hrs
  % Reduction: 12.43%
[2]; Time 2.5 hrs
  % Reduction: 13.33%
[2]; Time 3 hrs
  % Reduction: 19.97%
[2]; Time 4 hrs
  % Reduction: 19.85%
[2]; Time 5 hrs
  % Reduction: 15.71%
[2]; Time 6 hrs
  % Reduction: 20.17%
[2]; Time 8 hrs
  % Reduction: 24.95%
[2]; Time 10 hrs
  % Reduction: 30.40%
[2]; Time 12 hrs
  % Reduction: 31.90%
[2]; Time 16 hrs
  % Reduction: 40.22%
[2]; Time 24 hrs
  % Reduction: 61.33%
[2]; male, human, blood, oral, 40 mg, 24 hr, following consistently medication for 7 days, read-out: blood concentration remaining at 24 hr, accumulated
  concentration at 24 h: ~60 ng/mL
[2]; male, human, blood, oral, 40 mg, Time 0 hrs, dosing every 24 hours for 7 days, read-out: Blood concentration (ng/mL)/Compliance-7X
  concentration at 0 h: 54.1 ng/mL
[2]; male, human, blood, oral, 40 mg, dosing every 24 hours for 7 days, read-out: Blood concentration (ng/mL)/Compliance-7X
  concentration at 1.5 h: 1060 ng/mL
[2]; male, human, blood, oral, 40 mg, drug taken only one day, read-out: Blood concentration (ng/mL)/Non-Compliance-1X
  concentration at 1.5 h: 932 ng/mL
[2]; male, human, blood, oral, 40 mg, Time 2 hrs, dosing every 24 hours for 7 days, read-out: Blood concentration (ng/mL)/Compliance-7X
  concentration at 2 h: 1130 ng/mL
[2]; male, human, blood, oral, 40 mg, Time 2.5 hrs, dosing every 24 hours for 7 days, read-out: Blood concentration (ng/mL)/Compliance-7X
  concentration at 2.5 h: 1110 ng/mL
[2]; male, human, blood, oral, 40 mg, Time 3 hrs, dosing every 24 hours for 7 days, read-out: Blood concentration (ng/mL)/Compliance-7X
  concentration at 3 h: 1090 ng/mL
[2]; male, human, blood, oral, 40 mg, Time 4 hrs, dosing every 24 hours for 7 days, read-out: Blood concentration (ng/mL)/Compliance-7X
  concentration at 4 h: 911 ng/mL
[2]; male, human, blood, oral, 40 mg, Time 5 hrs, dosing every 24 hours for 7 days, read-out: Blood concentration (ng/mL)/Compliance-7X
  concentration at 5 h: 714 ng/mL
[2]; male, human, blood, oral, 40 mg, Time 6 hrs, dosing every 24 hours for 7 days, read-out: Blood concentration (ng/mL)/Compliance-7X
  concentration at 6 h: 543 ng/mL
[2]; male, human, blood, oral, 40 mg, Time 8 hrs, dosing every 24 hours for 7 days, read-out: Blood concentration (ng/mL)/Compliance-7X
  concentration at 8 h: 361 ng/mL
[2]; male, human, blood, oral, 40 mg, Time 10 hrs, dosing every 24 hours for 7 days, read-out: Blood concentration (ng/mL)/Compliance-7X
  concentration at 10 h: 263 ng/mL
[2]; male, human, blood, oral, 40 mg, Time 12 hrs, dosing every 24 hours for 7 days, read-out: Blood concentration (ng/mL)/Compliance-7X
  concentration at 12 h: 193 ng/mL
[2]; male, human, blood, oral, 40 mg, Time 16 hrs, dosing every 24 hours for 7 days, read-out: Blood concentration (ng/mL)/Compliance-7X
  concentration at 16 h: 123 ng/mL
[2]; male, human, blood, oral, 40 mg, Time 24 hrs, dosing every 24 hours for 7 days, read-out: Blood concentration (ng/mL)/Compliance-7X
  concentration at 24 h: 66.2 ng/mL
[2]; male, human, blood, oral, 24 hr, before accumulation, read-out: blood concentration remaining at 24 hr
  concentration at 24 h: ~40 ng/mL
[2]; male, human, blood, oral, Time 0 hrs, drug taken only one day, read-out: Blood concentration (ng/mL)/Non-Compliance-1X
  concentration at 0 h: 0 ng/mL
[2]; male, human, blood, oral, Time 1 hrs, drug taken only one day, read-out: Blood concentration (ng/mL)/Non-Compliance-1X
  concentration at 1 h: 677 ng/mL
[2]; male, human, blood, oral, Time 2 hrs, drug taken only one day, read-out: Blood concentration (ng/mL)/Non-Compliance-1X
  concentration at 2 h: 1000 ng/mL
[2]; male, human, blood, oral, Time 2.5 hrs, drug taken only one day, read-out: Blood concentration (ng/mL)/Non-Compliance-1X
  concentration at 2.5 h: 976 ng/mL
[2]; male, human, blood, oral, Time 3 hrs, drug taken only one day, read-out: Blood concentration (ng/mL)/Non-Compliance-1X
  concentration at 3 h: 912 ng/mL
[2]; male, human, blood, oral, Time 4 hrs, drug taken only one day, read-out: Blood concentration (ng/mL)/Non-Compliance-1X
  concentration at 4 h: 760 ng/mL
[2]; male, human, blood, oral, Time 5 hrs, drug taken only one day, read-out: Blood concentration (ng/mL)/Non-Compliance-1X
  concentration at 5 h: 617 ng/mL
[2]; male, human, blood, oral, Time 6 hrs, drug taken only one day, read-out: Blood concentration (ng/mL)/Non-Compliance-1X
  concentration at 6 h: 452 ng/mL
[2]; male, human, blood, oral, Time 8 hrs, drug taken only one day, read-out: Blood concentration (ng/mL)/Non-Compliance-1X
  concentration at 8 h: 289 ng/mL
[2]; male, human, blood, oral, Time 10 hrs, drug taken only one day, read-out: Blood concentration (ng/mL)/Non-Compliance-1X
  concentration at 10 h: 202 ng/mL
[2]; male, human, blood, oral, Time 12 hrs, drug taken only one day, read-out: Blood concentration (ng/mL)/Non-Compliance-1X
  concentration at 12 h: 146 ng/mL
[2]; male, human, blood, oral, Time 16 hrs, drug taken only one day, read-out: Blood concentration (ng/mL)/Non-Compliance-1X
  concentration at 16 h: 87.9 ng/mL
[2]; male, human, blood, oral, Time 24 hrs, drug taken only one day, read-out: Blood concentration (ng/mL)/Non-Compliance-1X
  concentration at 24 h: 41.1 ng/mL
[2]; male, human, blood, oral, population of subjects receiving olmesartan at 40 mg/day, daily administration, read-out: median AUC (target AUC)
  AUC: ~7000 ng·h/mL
[2]; much of the drug gone from the system at 48 hr
  clearance: rapid clearance
[3]
  subjects achieving target blood pressure reduction: about 50%
